Reference: patent US11787785B2 (NOVARTIS AG, priority 2021, dated 2023)

Target: T1, WIZ protein (HiBit-WIZ fusion protein) (Homo sapiens, UniProt O95785+Q96SW2)
T1 construct: expressed in transfected cells
Test: Quantification of WIZ protein levels in HiBit tag fusion protein assay (WIZ HiBit assay in 293T cells)
Assay type: cell-based
Settings: for Dmax at 25 µM / remaining activity at 25 µM: HEK-293T, 293T cells; for Dmax at 25 µM: 100 − Amax, read-out: % degradation of WIZ (100 − Amax); for remaining activity at 25 µM: DMSO-normalized, curve-fitted percentage of WIZ-HiBit remaining at 25 uM, read-out: WIZ Amax; for DC50: WIZ HiBit assay in 293T cells, 10-point, 5-fold dose response, highest concentration 25 μM, about 18 hours, read-out: WIZ AC50
Summary of the method: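 Luminescence after LgBit complementation quantified remaining HiBit-WIZ in lysates of single-copy stable 293T lines. Cells dosed ~18 h at 37 °C with 10-point, 5-fold dilutions (highest 25 μM); DMSO set to 100%, fitted curve gave % remaining at 25 μM (Amax).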

T1 sequence (O95785 whole entry, the tested form may be a part): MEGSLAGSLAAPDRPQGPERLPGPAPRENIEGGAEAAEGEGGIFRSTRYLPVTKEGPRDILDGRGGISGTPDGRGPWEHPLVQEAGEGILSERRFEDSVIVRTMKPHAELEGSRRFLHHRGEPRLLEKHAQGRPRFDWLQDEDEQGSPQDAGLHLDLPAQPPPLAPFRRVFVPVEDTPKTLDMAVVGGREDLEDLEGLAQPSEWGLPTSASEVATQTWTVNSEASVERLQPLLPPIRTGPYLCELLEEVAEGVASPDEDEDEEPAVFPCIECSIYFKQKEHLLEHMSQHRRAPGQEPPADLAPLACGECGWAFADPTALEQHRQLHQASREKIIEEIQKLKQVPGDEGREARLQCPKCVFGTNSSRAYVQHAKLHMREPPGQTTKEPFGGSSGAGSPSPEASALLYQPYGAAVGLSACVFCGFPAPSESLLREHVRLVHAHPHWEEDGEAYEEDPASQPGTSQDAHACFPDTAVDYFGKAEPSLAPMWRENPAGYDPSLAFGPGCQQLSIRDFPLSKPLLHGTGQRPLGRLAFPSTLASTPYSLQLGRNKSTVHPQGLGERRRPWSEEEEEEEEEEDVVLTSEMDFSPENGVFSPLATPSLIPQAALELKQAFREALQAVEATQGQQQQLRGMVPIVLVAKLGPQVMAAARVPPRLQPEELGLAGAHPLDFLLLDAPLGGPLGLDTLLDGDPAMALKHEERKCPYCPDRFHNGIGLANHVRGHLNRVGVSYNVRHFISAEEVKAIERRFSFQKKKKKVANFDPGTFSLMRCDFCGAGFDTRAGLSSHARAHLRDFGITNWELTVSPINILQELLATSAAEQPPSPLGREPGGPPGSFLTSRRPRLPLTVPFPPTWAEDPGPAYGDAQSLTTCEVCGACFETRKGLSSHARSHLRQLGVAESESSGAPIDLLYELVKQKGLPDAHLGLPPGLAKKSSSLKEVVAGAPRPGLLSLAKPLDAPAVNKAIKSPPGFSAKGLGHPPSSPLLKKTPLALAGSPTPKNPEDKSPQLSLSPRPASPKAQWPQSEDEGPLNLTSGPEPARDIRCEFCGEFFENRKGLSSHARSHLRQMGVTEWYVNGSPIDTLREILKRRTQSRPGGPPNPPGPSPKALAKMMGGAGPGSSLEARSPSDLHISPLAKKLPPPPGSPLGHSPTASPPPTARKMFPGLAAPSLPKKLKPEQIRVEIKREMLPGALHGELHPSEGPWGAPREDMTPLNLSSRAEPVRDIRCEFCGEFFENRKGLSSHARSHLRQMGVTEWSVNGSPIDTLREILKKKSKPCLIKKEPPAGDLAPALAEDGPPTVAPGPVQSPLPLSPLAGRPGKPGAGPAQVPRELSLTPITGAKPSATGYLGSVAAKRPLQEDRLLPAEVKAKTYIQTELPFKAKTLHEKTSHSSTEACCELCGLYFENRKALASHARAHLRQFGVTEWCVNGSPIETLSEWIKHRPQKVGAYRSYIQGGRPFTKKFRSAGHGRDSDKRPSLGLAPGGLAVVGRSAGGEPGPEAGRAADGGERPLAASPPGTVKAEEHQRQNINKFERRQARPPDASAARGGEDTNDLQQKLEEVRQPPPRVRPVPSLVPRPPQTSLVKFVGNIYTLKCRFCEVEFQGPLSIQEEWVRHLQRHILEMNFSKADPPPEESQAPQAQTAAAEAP
T1 sequence (Q96SW2 whole entry, the tested form may be a part): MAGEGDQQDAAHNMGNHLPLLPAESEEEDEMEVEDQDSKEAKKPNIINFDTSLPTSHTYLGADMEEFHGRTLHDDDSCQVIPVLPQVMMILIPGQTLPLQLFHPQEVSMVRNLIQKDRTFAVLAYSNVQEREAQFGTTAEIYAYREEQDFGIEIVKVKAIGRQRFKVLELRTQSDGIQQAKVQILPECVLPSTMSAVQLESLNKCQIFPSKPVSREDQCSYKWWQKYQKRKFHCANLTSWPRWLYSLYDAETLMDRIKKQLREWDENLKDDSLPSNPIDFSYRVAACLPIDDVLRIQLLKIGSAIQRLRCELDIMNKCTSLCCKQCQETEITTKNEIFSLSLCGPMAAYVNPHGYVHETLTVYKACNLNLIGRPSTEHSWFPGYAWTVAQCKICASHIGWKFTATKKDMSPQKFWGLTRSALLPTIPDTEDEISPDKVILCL
T1 sequence (Q16531 whole entry partner, the tested form may be a part): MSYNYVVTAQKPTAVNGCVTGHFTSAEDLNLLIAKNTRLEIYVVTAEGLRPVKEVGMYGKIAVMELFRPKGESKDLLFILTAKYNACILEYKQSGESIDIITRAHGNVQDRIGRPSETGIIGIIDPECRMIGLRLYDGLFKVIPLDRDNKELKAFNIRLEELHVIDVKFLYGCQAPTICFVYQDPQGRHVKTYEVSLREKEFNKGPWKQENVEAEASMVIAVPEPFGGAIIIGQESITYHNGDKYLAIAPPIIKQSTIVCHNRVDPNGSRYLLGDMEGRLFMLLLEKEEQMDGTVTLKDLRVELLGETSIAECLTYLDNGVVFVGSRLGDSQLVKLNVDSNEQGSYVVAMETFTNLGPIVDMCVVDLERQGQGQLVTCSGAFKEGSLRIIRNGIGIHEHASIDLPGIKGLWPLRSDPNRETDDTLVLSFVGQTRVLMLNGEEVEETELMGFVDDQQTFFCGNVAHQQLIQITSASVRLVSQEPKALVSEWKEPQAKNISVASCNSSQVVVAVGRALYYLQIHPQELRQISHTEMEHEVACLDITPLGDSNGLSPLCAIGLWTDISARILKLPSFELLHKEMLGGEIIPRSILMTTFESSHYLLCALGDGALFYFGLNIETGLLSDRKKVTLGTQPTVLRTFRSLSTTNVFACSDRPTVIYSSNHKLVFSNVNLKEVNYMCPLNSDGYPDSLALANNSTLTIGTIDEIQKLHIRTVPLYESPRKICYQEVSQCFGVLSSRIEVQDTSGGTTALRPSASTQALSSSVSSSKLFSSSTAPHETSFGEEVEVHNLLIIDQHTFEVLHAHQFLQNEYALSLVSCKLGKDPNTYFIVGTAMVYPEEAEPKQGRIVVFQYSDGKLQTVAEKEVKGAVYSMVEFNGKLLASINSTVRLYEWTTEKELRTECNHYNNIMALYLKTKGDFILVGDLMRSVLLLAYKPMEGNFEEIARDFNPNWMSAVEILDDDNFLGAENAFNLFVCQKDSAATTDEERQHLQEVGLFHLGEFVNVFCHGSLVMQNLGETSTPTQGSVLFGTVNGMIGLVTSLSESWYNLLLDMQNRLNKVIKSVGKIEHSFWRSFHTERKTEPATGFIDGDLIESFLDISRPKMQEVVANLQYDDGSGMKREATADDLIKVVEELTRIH

O=C1CCN(c2cnn3ccc(CC4CCN(CCc5c[nH]cn5)CC4)cc23)C(=O)N1 [Example 120, 1-(5-((1-(2-(1H-imidazol-4-yl)ethyl)piperidin-4-yl)methyl)pyrazolo[1,5-a]pyridin-3-yl)dihydropyrimidine-2,4(1H,3H)-dione]
Dmax at 25 µM: 66%
remaining activity at 25 µM: 34%
DC50: 1430 nM

O=C1CCN(c2cnn3ccc(CN4CCN(Cc5cccnc5)CC4)cc23)C(=O)N1 [Example 191, 1-(5-((4-(pyridin-3-ylmethyl)piperazin-1-yl)methyl)pyrazolo[1,5-a]pyridin-3-yl)dihydropyrimidine-2,4(1H,3H)-dione]
Dmax at 25 µM: 50%
remaining activity at 25 µM: 50%
DC50: 683 nM

O=C1CCN(c2cnn3ccc(CN4CCN(CC5CCCC5)CC4)cc23)C(=O)N1 [Example 159]
Dmax at 25 µM: 81%
remaining activity at 25 µM: 19%
DC50: 23 nM

CC(C)C(C)N1CCN(Cc2ccn3ncc(N4CCC(=O)NC4=O)c3c2)CC1 (stereo not drawn) [Example 240, 1-(5-((4-(3-methylbutan-2-yl)piperazin-1-yl)methyl)pyrazolo[1,5-a]pyridin-3-yl)dihydropyrimidine-2,4(1H,3H)-dione]
Dmax at 25 µM: 80%
remaining activity at 25 µM: 20%
DC50: 25 nM

CCS(=O)(=O)N1CCN(Cc2ccn3ncc(N4CCC(=O)NC4=O)c3c2)C[C@@H]1C [Example 339, (S)-1-(5-((4-(ethylsulfonyl)-3-methylpiperazin-1-yl)methyl)pyrazolo[1,5-a]pyridin-3-yl)dihydropyrimidine-2,4(1H,3H)-dione]
Dmax at 25 µM: 35%
remaining activity at 25 µM: 65%
DC50: 715 nM

C[C@H]1CN(Cc2ccn3ncc(N4CCC(=O)NC4=O)c3c2)CCN1C1CCC(F)(F)CC1 [Example 334]
Dmax at 25 µM: 85%
remaining activity at 25 µM: 15%
DC50: 32 nM

C[C@H]1C[C@H](Cc2ccn3ncc(N4CCC(=O)NC4=O)c3c2)CCN1C1CCC1 [Example 280, 1-(5-(((2S,4R)-1-cyclobutyl-2-methylpiperidin-4-yl)methyl)pyrazolo[1,5-a]pyridin-3-yl)dihydropyrimidine-2,4(1H,3H)-dione]
Dmax at 25 µM: 88%
remaining activity at 25 µM: 12%
DC50: 8 nM

C[C@@H]1C[C@H](Cc2ccn3ncc(N4CCC(=O)NC4=O)c3c2)CCN1CC1CCC(F)(F)CC1 [Example 78]
Dmax at 25 µM: 83%
remaining activity at 25 µM: 17%
DC50: 10 nM

C[C@H]1CN(Cc2ccn3ncc(N4CCC(=O)NC4=O)c3c2)CCN1C1CC2(C1)CN(C)C2 [Example 336, (S)-1-(5-((3-methyl-4-(2-methyl-2-azaspiro[3.3]heptan-6-yl)piperazin-1-yl)methyl)pyrazolo[1,5-a]pyridin-3-yl)dihydropyrimidine-2,4(1H,3H)-dione]
Dmax at 25 µM: 76%
remaining activity at 25 µM: 24%
DC50: 12000 nM

O=C1CCN(c2cnn3ccc(CN4CCN(CC5CCCOC5)CC4)cc23)C(=O)N1 (stereo not drawn) [Example 162]
Dmax at 25 µM: 79%
remaining activity at 25 µM: 21%
DC50: 79 nM

C[C@@H]1C[C@@H](Cc2ccn3ncc(N4CCC(=O)NC4=O)c3c2)CCN1CC1CCC(F)(F)CC1 [Example 155]
Dmax at 25 µM: 85%
remaining activity at 25 µM: 15%
DC50: 9 nM

CO[C@H]1CC[C@@H](CN2CCC(Cc3ccn4ncc(N5CCC(=O)NC5=O)c4c3)CC2)CC1 [Example 65, 1-(5-((1-(((1s,4s)-4-methoxycyclohexyl)methyl)piperidin-4-yl)methyl)pyrazolo[1,5-a]pyridin-3-yl)dihydropyrimidine-2,4(1H,3H)-dione]
Dmax at 25 µM: 94%
remaining activity at 25 µM: 6%
DC50: 32 nM

CC[C@H]1CN(Cc2ccn3ncc(N4CCC(=O)NC4=O)c3c2)CCN1CC1CCOCC1 [Example 227, (S)-1-(5-((3-ethyl-4-((tetrahydro-2H-pyran-4-yl)methyl)piperazin-1-yl)methyl)pyrazolo[1,5-a]pyridin-3-yl)dihydropyrimidine-2,4(1H,3H)-dione]
Dmax at 25 µM: 60%
remaining activity at 25 µM: 40%
DC50: 956 nM

C[C@H]1C[C@H](Cc2ccn3ncc(-n4cc(F)c(=O)[nH]c4=O)c3c2)CCN1CC1CCC(F)(F)CC1 [Example 350, 1-(5-(((2S,4R)-1-((4,4-difluorocyclohexyl)methyl)-2-methylpiperidin-4-yl)methyl)pyrazolo[1,5-a]pyridin-3-yl)-5-fluoropyrimidine-2,4(1H,3H)-dione]
Dmax at 25 µM: 90%
remaining activity at 25 µM: 10%
DC50: 28 nM

CC(C)(C1CCOCC1)N1CCC(Cc2ccn3ncc(N4CCC(=O)NC4=O)c3c2)CC1 [Example 136, 1-(5-((1-(2-(tetrahydro-2H-pyran-4-yl)propan-2-yl)piperidin-4-yl)methyl)pyrazolo[1,5-a]pyridin-3-yl)dihydropyrimidine-2,4(1H,3H)-dione]
Dmax at 25 µM: 86%
remaining activity at 25 µM: 14%
DC50: 33 nM

C[C@H]1C[C@H](Cc2ccn3ncc(N4CCC(=O)NC4=O)c3c2)CCN1C(=O)N(C)C [Example 294]
Dmax at 25 µM: 81%
remaining activity at 25 µM: 19%
DC50: 18 nM

CO[C@H]1CC[C@@H](CN2CCN(Cc3ccn4ncc(N5CCC(=O)NC5=O)c4c3)CC2)CC1 [Example 180, 1-(5-((4-(((1s,4s)-4-methoxycyclohexyl)methyl)piperazin-1-yl)methyl)pyrazolo[1,5-a]pyridin-3-yl)dihydropyrimidine-2,4(1H,3H)-dione]
Dmax at 25 µM: 81%
remaining activity at 25 µM: 19%
DC50: 78 nM

O=C1CCN(c2cnn3ccc(CN4CCN(CC5CCCCC5)CC4=O)cc23)C(=O)N1 [Example 255, 1-(5-((4-(cyclohexylmethyl)-2-oxopiperazin-1-yl)methyl)pyrazolo[1,5-a]pyridin-3-yl)dihydropyrimidine-2,4(1H,3H)-dione]
Dmax at 25 µM: 0%
remaining activity at 25 µM: 100%
DC50: > 25000 nM

O=C1CCN(c2cnn3ccc(CN4C[C@H]5CC[C@@H](C4)N5Cc4cccc(F)c4)cc23)C(=O)N1 [Example 251, 1-(5-(((1R,5S)-8-(3-fluorobenzyl)-3,8-diazabicyclo[3.2.1]octan-3-yl)methyl)pyrazolo[1,5-a]pyridin-3-yl)dihydropyrimidine-2,4(1H,3H)-dione]
Dmax at 25 µM: 18%
remaining activity at 25 µM: 82%
DC50: 165 nM

COc1ccc(CN2CCC(Cc3ccn4ncc(N5CCC(=O)NC5=O)c4c3)CC2)cc1 [Example 61, 1-(5-((1-(4-methoxybenzyl)piperidin-4-yl)methyl)pyrazolo[1,5-a]pyridin-3-yl)dihydropyrimidine-2,4(1H,3H)-dione]
Dmax at 25 µM: 62%
remaining activity at 25 µM: 38%
DC50: 1740 nM

CCC(C)S(=O)(=O)N1CCC(Cc2ccn3ncc(N4CCC(=O)NC4=O)c3c2)CC1 (stereo not drawn) [Example 86]
Dmax at 25 µM: 80%
remaining activity at 25 µM: 20%
DC50: 27 nM

CCO[C@H]1CC[C@H](CN2CCC(Cc3ccn4ncc(N5CCC(=O)NC5=O)c4c3)CC2)CC1 [Example 266, 1-(5-((1-(((1r,4r)-4-ethoxycyclohexyl)methyl)piperidin-4-yl)methyl)pyrazolo[1,5-a]pyridin-3-yl)dihydropyrimidine-2,4(1H,3H)-dione]
Dmax at 25 µM: 81%
remaining activity at 25 µM: 19%
DC50: 44 nM

O=C1CCN(c2cnn3ccc(CC4CCN(S(=O)(=O)NC5CCCC5)CC4)cc23)C(=O)N1 [Example 298, N-cyclopentyl-4-((3-(2,4-dioxotetrahydropyrimidin-1(2H)-yl)pyrazolo[1,5-a]pyridin-5-yl)methyl)piperidine-1-sulfonamide]
Dmax at 25 µM: 51%
remaining activity at 25 µM: 49%
DC50: 242 nM

C[C@H]1CN(Cc2ccn3ncc(N4CCC(=O)NC4=O)c3c2)CCN1CC1CCC(C)(C)CC1 [Example 200, (S)-1-(5-((4-((4,4-dimethylcyclohexyl)methyl)-3-methylpiperazin-1-yl)methyl)pyrazolo[1,5-a]pyridin-3-yl)dihydropyrimidine-2,4(1H,3H)-dione]
Dmax at 25 µM: 90%
remaining activity at 25 µM: 10%
DC50: 8 nM

C[C@H]1CN(Cc2ccn3ncc(N4CCC(=O)NC4=O)c3c2)C[C@H](C)N1CC1CCCCC1 [Example 258, 1-(5-(((3S,5S)-4-(cyclohexylmethyl)-3,5-dimethylpiperazin-1-yl)methyl)pyrazolo[1,5-a]pyridin-3-yl)dihydropyrimidine-2,4(1H,3H)-dione]
Dmax at 25 µM: 69%
remaining activity at 25 µM: 31%
DC50: 148 nM

O=C1CCN(c2cnn3ccc(CC4CCN(CC5COC5)CC4)cc23)C(=O)N1 [Example 119, 1-(5-((1-(oxetan-3-ylmethyl)piperidin-4-yl)methyl)pyrazolo[1,5-a]pyridin-3-yl)dihydropyrimidine-2,4(1H,3H)-dione]
Dmax at 25 µM: 82%
remaining activity at 25 µM: 18%
DC50: 109 nM

CC(C)(CN1CCN(Cc2ccn3ncc(N4CCC(=O)NC4=O)c3c2)CC1)C(F)(F)F [Example 241, 1-(5-((4-(3,3,3-trifluoro-2,2-dimethylpropyl)piperazin-1-yl)methyl)pyrazolo[1,5-a]pyridin-3-yl)dihydropyrimidine-2,4(1H,3H)-dione]
Dmax at 25 µM: 44%
remaining activity at 25 µM: 56%
DC50: 351 nM

O=C1CCN(c2cnn3ccc(CC4CCN(CC(F)(F)C5CCCCC5)CC4)cc23)C(=O)N1 [Example 112, 1-(5-((1-(2-cyclohexyl-2,2-difluoroethyl)piperidin-4-yl)methyl)pyrazolo[1,5-a]pyridin-3-yl)dihydropyrimidine-2,4(1H,3H)-dione]
Dmax at 25 µM: 66%
remaining activity at 25 µM: 34%
DC50: 16 nM
